# Test system: GST-Bcl-2
# Experiment: TR-FRET binding assay, Bcl-2
# Details: TR-FRET Ki values
# Outline: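 Ki values come from Wang's competitive-binding equation applied to TR-FRET signal (excitation 340/35 nm; emission 520/525 nm F-Bak peptide, 495/510 nm Tb antibody). Protein, probe and antibody incubated with compound 3 h at room temperature; dilution series began at 50 μM as 2× stock in 10% DMSO.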
row,Compound,Binding selectivity ratio (Bcl-XL Ki/Bcl-2 Ki)
1,"C#Cc1cc(S(=O)(=O)NC(=O)c2ccc(N3CCN(CC4=C(c5ccc(Cl)cc5)CC(C)(C)CC4)CC3)cc2Oc2cccc3[nH]ccc23)cnc1OCC1CCOCC1 [EXAMPLE 391, 4-(4-{[2-(4-chlorophenyl)-4,4-dimethylcyclohex-1-en-1-yl]methyl}piperazin-1-yl)-N-{[5-ethynyl-6-(tetrahydro-2H-pyran-4-ylmethoxy)pyridin-3-yl]sulfonyl}-2-(1H-indol-4-yloxy)benzamide]",>186.4
2,"CC1(C)CCC(CN2CCN(c3ccc(C(=O)NS(=O)(=O)c4ccc(NCC5CN(CC#N)CCO5)c([N+](=O)[O-])c4)c(Oc4cccc5[nH]cnc45)c3)CC2)=C(c2ccc(Cl)cc2)C1 (stereo not shown) [EXAMPLE 431, 2-(1H-benzimidazol-4-yloxy)-4-(4-{[2-(4-chlorophenyl)-4,4-dimethylcyclohex-1-en-1-yl]methyl}piperazin-1-yl)-N-{[4-({[4-(cyanomethyl)morpholin-2-yl]methyl}amino)-3-nitrophenyl]sulfonyl}benzamide]",677.36
3,"CC1(C)CCC(CN2CCN(c3ccc(C(=O)NS(=O)(=O)c4ccc(NCCc5ccc(S(N)(=O)=O)cc5)c([N+](=O)[O-])c4)c(Oc4ccc5[nH]ccc5c4)c3)CC2)=C(c2ccc(Cl)cc2)C1 [EXAMPLE 376, N-{[4-({2-[4-(aminosulfonyl)phenyl]ethyl}amino)-3-nitrophenyl]sulfonyl}-4-(4-{[2-(4-chlorophenyl)-4,4-dimethylcyclohex-1-en-1-yl]methyl}piperazin-1-yl)-2-(1H-indol-5-yloxy)benzamide]",>29.5
4,"CC1(C)CCC(CN2CCN(c3ccc(C(=O)NS(=O)(=O)c4ccc(NCC5(N)CCOCC5)c([N+](=O)[O-])c4)c(Oc4ccc5[nH]ccc5c4)c3)CC2CO)=C(c2ccc(Cl)cc2)C1 (stereo not shown) [EXAMPLE 237, N-[(4-{[(4-aminotetrahydro-2H-pyran-4-yl)methyl]amino}-3-nitrophenyl)sulfonyl]-4-[4-{[2-(4-chlorophenyl)-4,4-dimethylcyclohex-1-en-1-yl]methyl}-3-(hydroxymethyl)piperazin-1-yl]-2-(1H-indol-5-yloxy)benzamide]",668.3
5,"O=C(NS(=O)(=O)c1ccc(NCC2CCOCC2)c(S(=O)(=O)C(F)(F)F)c1)c1ccc(N2CCN(Cc3cc(OCCN4CCOCC4)ccc3-c3ccc(Cl)cc3)CC2)cc1Oc1ccccc1 [Example 117, 4-(4-{[4′-chloro-4-(2-morpholin-4-ylethoxy)-1,1′-biphenyl-2-yl]methyl}piperazin-1-yl)-2-phenoxy-N-({4-[(tetrahydro-2H-pyran-4-ylmethyl)amino]-3-[(trifluoromethyl)sulfonyl]phenyl}sulfonyl)benzamide]",>287.1
6,"CC1(C)CCC(CN2CCN(c3ccc(C(=O)NS(=O)(=O)c4ccc(OCC5CCOC(C)(C)C5)c([N+](=O)[O-])c4)c(Oc4ccc5[nH]ccc5c4)c3)CC2)=C(c2ccc(Cl)cc2)C1 (stereo not shown) [EXAMPLE 384, 4-(4-{[2-(4-chlorophenyl)-4,4-dimethylcyclohex-1-en-1-yl]methyl}piperazin-1-yl)-N-({4-[(2,2-dimethyltetrahydro-2H-pyran-4-yl)methoxy]-3-nitrophenyl}sulfonyl)-2-(1H-indol-5-yloxy)benzamide]",>8684.2
7,"COCCOCCNc1ccc(S(=O)(=O)NC(=O)c2ccc(N3CCN(CC4=C(c5ccc(Cl)cc5)CC(C)(C)CC4)CC3)cc2Oc2ccc3[nH]ccc3c2)cc1[N+](=O)[O-] [EXAMPLE 298, 4-(4-{[2-(4-chlorophenyl)-4,4-dimethylcyclohex-1-en-1-yl]methyl}piperazin-1-yl)-2-(1H-indol-5-yloxy)-N-[(4-{[2-(2-methoxyethoxy)ethyl]amino}-3-nitrophenyl)sulfonyl]benzamide]",1415.7
8,"COCCN1CCC(Nc2ccc(S(=O)(=O)NC(=O)c3ccc(N4CCN(CC5=C(c6ccc(Cl)cc6)CC(C)(C)CC5)CC4)cc3Oc3cccc4[nH]ccc34)cc2[N+](=O)[O-])CC1 [EXAMPLE 194, 4-(4-{[2-(4-chlorophenyl)-4,4-dimethylcyclohex-1-en-1-yl]methyl}piperazin-1-yl)-2-(1H-indol-4-yloxy)-N-[(4-{[1-(2-methoxyethyl)piperidin-4-yl]amino}-3-nitrophenyl)sulfonyl]benzamide]",212.4
9,"CC1(C)CCC(CN2CCN(c3ccc(C(=O)NS(=O)(=O)c4ccc(OCC5CCOCC5)c(C(N)=O)c4)c(Oc4ccc5[nH]ccc5c4)c3)CC2)=C(c2ccc(Cl)cc2)C1 [EXAMPLE 357, N-{[3-(aminocarbonyl)-4-(tetrahydro-2H-pyran-4-ylmethoxy)phenyl]sulfonyl}-4-(4-{[2-(4-chlorophenyl)-4,4-dimethylcyclohex-1-en-1-yl]methyl}piperazin-1-yl)-2-(1H-indol-5-yloxy)benzamide]",>493.9
10,"CC1(C)CCC(CN2CCN(c3ccc(C(=O)NS(=O)(=O)c4ccc(NC[C@H]5CC[C@H](O)CC5)c([N+](=O)[O-])c4)c(Oc4ccc5[nH]ccc5c4)c3)CC2)=C(c2ccc(Cl)cc2)C1 [EXAMPLE 310, Trans-4-(4-{[2-(4-chlorophenyl)-4,4-dimethylcyclohex-1-en-1-yl]methyl}piperazin-1-yl)-N-[(4-{[(4-hydroxycyclohexyl)methyl]amino}-3-nitrophenyl)sulfonyl]-2-(1H-indol-5-yloxy)benzamide]",>13469.4
11,"CC1(C)CCC(CN2CCN(c3ccc(C(=O)NS(=O)(=O)c4ccc(OCC5(F)CCOCC5)c([N+](=O)[O-])c4)c(Oc4cccc5[nH]ccc45)c3)CC2)=C(c2ccc(Cl)cc2)C1 [EXAMPLE 306, 4-(4-{[2-(4-chlorophenyl)-4,4-dimethylcyclohex-1-en-1-yl]methyl}piperazin-1-yl)-N-({4-[(4-fluorotetrahydro-2H-pyran-4-yl)methoxy]-3-nitrophenyl}sulfonyl)-2-(1H-indol-4-yloxy)benzamide]",622
12,"COCCNc1ccc(S(=O)(=O)NC(=O)c2ccc(N3CCN(CC4=C(c5ccc(Cl)cc5)CC(C)(C)CC4)CC3)cc2Oc2cccc3[nH]ccc23)cc1[N+](=O)[O-] [EXAMPLE 239, 4-(4-{[2-(4-chlorophenyl)-4,4-dimethylcyclohex-1-en-1-yl]methyl}piperazin-1-yl)-2-(1H-indol-4-yloxy)-N-({4-[(2-methoxyethyl)amino]-3-nitrophenyl}sulfonyl)benzamide]",430.9
13,"CC(c1ccccc1-c1ccc(Cl)cc1)N1CCN(c2ccc(C(=O)NS(=O)(=O)c3ccc(NN4CCN(C)CC4)c([N+](=O)[O-])c3)c(Oc3cccc4[nH]ccc34)c2)CC1 (stereo not shown) [EXAMPLE 217, 4-{4-[1-(4′-chloro-1,1′-biphenyl-2-yl)ethyl]piperazin-1-yl}-2-(1H-indol-4-yloxy)-N-({4-[(4-methylpiperazin-1-yl)amino]-3-nitrophenyl}sulfonyl)benzamide]",171.1
14,"CC1(C)CCC(CN2CCN(c3ccc(C(=O)NS(=O)(=O)c4ccc(NC5CCN(CC(F)(F)F)CC5)c([N+](=O)[O-])c4)c(Oc4cccc5[nH]ccc45)c3)CC2)=C(c2ccc(Cl)cc2)C1 [Example 108, 4-(4-{[2-(4-chlorophenyl)-4,4-dimethylcyclohex-1-en-1-yl]methyl}piperazin-1-yl)-2-(1H-indol-4-yloxy)-N-[(3-nitro-4-{[1-(2,2,2-trifluoroethyl)piperidin-4-yl]amino}phenyl)sulfonyl]benzamide]",25.5
15,"CC1(C)CCC(CN2CCN(c3ccc(C(=O)NS(=O)(=O)c4ccc(NC5CCC(F)(F)CC5)c([N+](=O)[O-])c4)c(Oc4ccc5[nH]ccc5c4)c3)CC2)=C(c2ccc(Cl)cc2)C1 [EXAMPLE 305, 4-(4-{[2-(4-chlorophenyl)-4,4-dimethylcyclohex-1-en-1-yl]methyl}piperazin-1-yl)-N-({4-[(4,4-difluorocyclohexyl)amino]-3-nitrophenyl}sulfonyl)-2-(1H-indol-5-yloxy)benzamide]",>179.2
16,"CN(C)CCOc1cccc(-c2ccc(Cl)cc2)c1CN1CCN(c2ccc(C(=O)NS(=O)(=O)c3ccc(NC4CCN(C5CCOCC5)CC4)c([N+](=O)[O-])c3)c(Oc3cccc4[nH]ccc34)c2)CC1 [EXAMPLE 199, 4-[4-({4′-chloro-3-[2-(dimethylamino)ethoxy]-1,1′-biphenyl-2-yl}methyl)piperazin-1-yl]-2-(1H-indol-4-yloxy)-N-({3-nitro-4-[(1-tetrahydro-2H-pyran-4-ylpiperidin-4-yl)amino]phenyl}sulfonyl)benzamide]",369.8
17,"CC1(C)CCC(CN2CCN(c3ccc(C(=O)NS(=O)(=O)c4ccc(NCC5CN(C6COC6)CCO5)c([N+](=O)[O-])c4)c(Oc4cccc5[nH]cnc45)c3)CC2)=C(c2ccc(Cl)cc2)C1 (stereo not shown) [EXAMPLE 433, 2-(1H-benzimidazol-4-yloxy)-4-(4-{[2-(4-chlorophenyl)-4,4-dimethylcyclohex-1-en-1-yl]methyl}piperazin-1-yl)-N-[(3-nitro-4-{[(4-oxetan-3-ylmorpholin-2-yl)methyl]amino}phenyl)sulfonyl]benzamide]",228.55
18,"CC1(C)CCC(CN2CCN(c3ccc(C(=O)NS(=O)(=O)c4ccc(N[C@@H]5CCN(Cc6ccccc6)C[C@@H]5O)c([N+](=O)[O-])c4)c(Oc4ccc5[nH]ccc5c4)c3)CC2)=C(c2ccc(Cl)cc2)C1 [EXAMPLE 187, N-[(4-{[(3S,4R)-1-benzyl-3-hydroxypiperidin-4-yl]amino}-3-nitrophenyl)sulfonyl]-4-(4-{[2-(4-chlorophenyl)-4,4-dimethylcyclohex-1-en-1-yl]methyl}piperazin-1-yl)-2-(1H-indol-5-yloxy)benzamide]",>2003.9
19,"4-(4-{[2-(4-chlorophenyl)-4,4-dimethylcyclohex-1-en-1-yl]methyl}piperazin-1-yl)-N-{[4-({[Cis-4-hydroxy-1-adamantyl]methyl}amino)-3-nitrophenyl]sulfonyl}-2-(1H-indol-5-yloxy)benzamide [EXAMPLE 322]",>3591.4
